According to ChEMBL document CHEMBL1201862, “PubChem BioAssay data set” (2004):
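Assay format: 96-well plates, 48-hour exposure. GI50: concentration for 50% inhibition of growth.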 Activity calls are given as the source filed them. No stated cut-off is given here; in the data, active = GI50 up to about 1.1 µM and inactive = higher.

Columns and labels:
Test in all cases: NCI anticancer screen, dose series, 48 h
[1] = system: NCI-H460
[2] = system: K562
[3] = system: NCI-H23
[4] = system: CCRF-CEM
[5] = system: OVCAR-3
[6] = system: NCI-H522
[7] = system: SN12C
[8] = system: SK-MEL-28
[9] = system: OVCAR-4
[10] = system: 786-0
[11] = system: HCC 2998
[12] = system: HOP-62
[13] = system: HOP-92
[14] = system: HCT-15
[15] = system: COLO 205

Structure (SMILES) | GI50 [1] | GI50 [2] | GI50 [3] | GI50 [4] | GI50 [5] | GI50 [6] | GI50 [7] | GI50 [8] | GI50 [9] | GI50 [10] | GI50 [11] | GI50 [12] | GI50 [13] | GI50 [14] [µM] | GI50 [15]
O=C(CN1CCCCC1)N1CCc2c([nH]c3ccccc23)C1c1cccnc1 (stereo not given) | > 100 µM (inactive) | > 100 µM (inactive) | > 100 µM (inactive) | > 100 µM (inactive) | > 100 µM (inactive) | > 100 µM (inactive) | > 100 µM (inactive) | > 100 µM (inactive) | > 100 µM (inactive) | > 100 µM (inactive) | > 100 µM (inactive) | > 100 µM (inactive) | 34.6 µM (inactive) | > 100 | –
Cn1nc(-c2ccccc2)c(C(=O)/C=C/c2ccc(Cl)cc2)c(N2CCCCC2)c1=O | 2.52 µM (inactive) | 2.04 µM (inactive) | 2.19 µM (inactive) | 2.18 µM (inactive) | – | 1.85 µM (inactive) | 3.53 µM (inactive) | 3.78 µM (inactive) | – | 1.69 µM (inactive) | – | 2.37 µM (inactive) | 1.91 µM (inactive) | 2.98 | 2.23 µM (inactive)
C=CCCCCC1CCC2CCC(CCCCC=C)N12 (stereo not given) | 12.4 µM (inactive) | 12.1 µM (inactive) | – | 11.6 µM (inactive) | 15.1 µM (inactive) | 14.2 µM (inactive) | 15.7 µM (inactive) | 17.7 µM (inactive) | 13 µM (inactive) | 13.7 µM (inactive) | 16.1 µM (inactive) | 16 µM (inactive) | 10.3 µM (inactive) | 6.3 | 16.2 µM (inactive)
CC(C)=CC1CCc2ccccc2N1S(=O)(=O)c1ccc(C)cc1 (stereo not given) | 1.36 µM (inactive) | 0.59 µM (active) | 1.4 µM (inactive) | 0.373 µM (active) | 0.865 µM (active) | 1.52 µM (inactive) | 2.99 µM (inactive) | 1.96 µM (inactive) | 4.31 µM (inactive) | 2.35 µM (inactive) | 1.27 µM (inactive) | 2.57 µM (inactive) | 0.433 µM (active) | 1.09 | 1.06 µM (active)
Cc1c(C(=O)/C=C/c2ccccc2Cl)[n+]([O-])c2ccccc2[n+]1[O-] | 10.3 µM (inactive) | 5.53 µM (inactive) | 14.5 µM (inactive) | – | 15.9 µM (inactive) | 11.2 µM (inactive) | 15.1 µM (inactive) | 16.6 µM (inactive) | 12.1 µM (inactive) | 12.6 µM (inactive) | – | 19.9 µM (inactive) | 15.3 µM (inactive) | 10.1 | 15.5 µM (inactive)
c1ccc(OCCSCCCCCCCCCCSCCOc2ccccc2)cc1 | 37.8 µM (inactive) | > 100 µM (inactive) | > 100 µM (inactive) | > 100 µM (inactive) | > 100 µM (inactive) | > 100 µM (inactive) | > 100 µM (inactive) | > 100 µM (inactive) | – | 50.4 µM (inactive) | > 100 µM (inactive) | 24.7 µM (inactive) | – | > 100 | > 100 µM (inactive)
CC12CCC(C)(c3cc(O)c(O)cc31)c1cc(O)c(O)cc12 | 18 µM (inactive) | 7.06 µM (inactive) | 27 µM (inactive) | 2.92 µM (inactive) | 17.8 µM (inactive) | 2.29 µM (inactive) | 21.8 µM (inactive) | 16.4 µM (inactive) | 14.6 µM (inactive) | 14.7 µM (inactive) | 17.5 µM (inactive) | 26.7 µM (inactive) | 10.7 µM (inactive) | 13.7 | 16.5 µM (inactive)
C=C1C(=O)OC2C1CC[C@H](C)C1(O)C(O)CC(=O)[C@@]21C (stereo not given in full) | 36.5 µM (inactive) | 14.3 µM (inactive) | 18.7 µM (inactive) | > 10 µM (inactive) | 21.2 µM (inactive) | – | 22 µM (inactive) | 13.6 µM (inactive) | – | 24.2 µM (inactive) | 24 µM (inactive) | – | 27.7 µM (inactive) | – | 16.3 µM (inactive)
[N-]=[N+]=NC(CI)c1cn([C@H]2C[C@H](O)[C@@H](CO)O2)c(=O)[nH]c1=O (stereo not given in full) | 29.8 µM (inactive) | 83.9 µM (inactive) | 90.4 µM (inactive) | > 100 µM (inactive) | > 100 µM (inactive) | > 100 µM (inactive) | > 100 µM (inactive) | > 100 µM (inactive) | – | 63.2 µM (inactive) | 85.1 µM (inactive) | > 100 µM (inactive) | > 100 µM (inactive) | > 100 | > 100 µM (inactive)
COc1cc2c(c(OC)c1OC)-c1ccc(SC)c(=O)cc1[C@@H](NC(=O)c1ccc(F)cc1)CC2 | 0.0344 µM (active) | 0.0284 µM (active) | 0.0417 µM (active) | < 0.01 µM (active) | 0.0183 µM (active) | < 0.01 µM (active) | 0.0384 µM (active) | 15.2 µM (inactive) | 6.59 µM (inactive) | 0.0488 µM (active) | 0.0284 µM (active) | 0.0621 µM (active) | 0.0281 µM (active) | – | 0.0206 µM (active)
